Measurements published in patent publication US6121320A, “Combination anti-leukemic therapy by utilizing suramin and biologic response modifiers” (The University of Kentucky Research Foundation, priority 1998, dated 2000).
Read-outs that look alike come from different tables or passages of the source. Each block holds one molecule with its values, some of them ahead of it.

How the values were obtained:
[1] = test system: acute promyelocytic leukemia (APL); conditions: cited from earlier work
HL-60 [2] = test: HL-60 leukemia cell proliferation (MTT), single agents and combinations, CI-isobologram analysis; format: cell-based, human
Protocol: (§1) Assays of proliferation consist of cell proliferation (3H-thymidine) assay as previously described or the MTT assay after 3-5 days of exposure to the agents. Cell proliferation is assayed using a modification of the original MTT calorimetric assay described by Mosmann (53). To better delineate the issues of proliferation (and inhibition thereof) versus differentiation, which is induced by certain of the agents being proposed for testing, an alternative method would utilize simple cell counting (Courter, Inc.) of aliquots at 3 and 5 days of continuous exposure with concomitant analysis of induced differentiation by cell morphology (NBT-positive) conducted. The percentage of differentiated cells in liquid culture determined by the NBT reduction test (as described, (54) allows for an estimate of the total number of cells which are still blast cells and therefore considered capable of continued leukemogenic growth. The most promising combinations are used to examine de novo acute myeloid leukemia patient samples in like fashion.
The antigrowth factor activity of suramin was tested alone and in combination with all-trans retinoic acid (ATRA) against the human leukemic line HL-60 or its ATRA resistant subclone, HL-60R, to assess if an agent with the ability to interrupt putative autocrine driven leukemic cell growth could reestablish sensitivity to ATRA. […] Synergy or antagonism between combinations was then assessed using a combination-index CI-isobolo gram method.
Cell lines chosen for this study include the ATRA sensitive human acute leukemia HL-60 and the ATRA resistant subclone, HL-60R. While originally described as an acute promyelocytic cell line, more recent work categorizes this line as an acute myelogenous leukemia. The sensitivity of these cell lines to ATRA and suramin alone as single agents has been assessed. […] The assays of proliferation consist of cell proliferation after 3-5 days of exposure to the agents. Cell proliferation is assayed using a modification of the original MTT calorimetric assay described by Mossman, et al. In similar fashion, a dose response curve to cytosine arabinoside has been generated. Using the IC50 values for each agent alone allows selection of reasonable drug combinations. The data software program, "Dose effect analysis with microcomputers" (BioSoft, Inc.) developed by Dr. Chou, et al. is utilized. This computer analysis program allows the assessment of drug combinations for synergistic, additive, or antagonistic interactions.

rhGM-CSF = rhGM-CSF (Homo sapiens, UniProt P04141); test: Competition for nucleotide photoprobe incorporation into rhGM-CSF; format: binding
Mo7E = test: Proliferation of GM-CSF dependent Mo7E cells; format: cell-based, human; conditions: read-out: Half-maximal inhibition of Mo/7E growth (GM-CSF dependent)
Excerpt: control. Similarly, cell proliferating of GM-CSF
dependent (Mo7E) and autonomously proliferation (GM-CSF
independent) human leukemia cells (HL-60) gave half-
maximal inhibition of growth. Results are expressed as […]

follicular lymphoma = conditions: evaluable follicular lymphoma patients; cited from earlier work
HL-60R = HL-60R (ATRA resistant subclone) proliferation (MTT), single agents and combinations; format: cell-based, human
Protocol: as §1, with “fashion. […]” for “fashion.”
Cell lines chosen for this study include the ATRA sensitive human acute leukemia HL-60 and the ATRA resistant subclone, HL-60R. […] The sensitivity of these cell lines to ATRA and suramin alone as single agents has been assessed. […]

HL-60 [3] = conditions: HL-60 in vitro, reference 48; cited from earlier work
NB4 = test: Activity against NB4 leukemia cells; format: cell-based, human
Protocol: While originally described as an acute promyelocytic cell line, more recent work categorizes this line as an acute myelogenous leukemia.
as §1

[4] = Homo sapiens, HL-60, 120 h, read-out: Fractional Inhibition
[5] = photoprobe incorporation into rhGM-CSF compared to control, read-out: Half-maximal inhibition of nucleotide binding
[6] = Homo sapiens, HL-60, autonomously proliferating cells, read-out: Half-maximal inhibition of HL-60 growth (GM-CSF independent)

Chain of rhGM-CSF (P04141 18-144): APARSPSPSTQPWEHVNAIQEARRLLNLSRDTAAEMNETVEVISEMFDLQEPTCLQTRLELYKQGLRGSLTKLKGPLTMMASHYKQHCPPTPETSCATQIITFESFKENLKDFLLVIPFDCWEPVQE

Structure (SMILES): CC1=C(/C=C/C(C)=C/C=C/C(C)=C/C(=O)O)C(C)(C)CCC1 [ATRA, all-trans retinoic acid]
Patients resistant to ATRA at diagnosis or relapsing ([1]; APL): 30-40% | Complete remission rate ([1]; ATRA as a single agent in APL): ≥ 70% | Patients with long term remissions ([1]; ATRA treatment followed by chemotherapy): 60% | Patients with ATRA syndrome ([1]; subset of APL patients, fever, respiratory distress, chest x-ray abnormalities, weight gain): 5-20% | m (slope of the median-effect plot) (HL-60 [2]; HL60, 5 days exposure): .2729 | IC50 (HL-60 [2]; Homo sapiens, HL-60, 120 h, read-out: Dm (antilog of x-intercept of the median-effect plot, the potency (IC50))): 0.00022 µM | inhibition at 0.001 µM (HL-60 [2]; [4]): 56.1% | inhibition at 0.01 µM (HL-60 [2]; [4]): 77.7% | inhibition at 0.02 µM (HL-60 [2]; [4]): 79% | inhibition at 0.04 µM (HL-60 [2]; [4]): 82.3% | inhibition at 0.08 µM (HL-60 [2]; [4]): 82.6% | inhibition at 0.16 µM (HL-60 [2]; [4]): 83.5%

IC50 (rhGM-CSF; [5]): 5 µM | IC50 (HL-60 [2]; [6]): 175 µM
Structure (SMILES): O=C(Nc1cccc(C(=O)Nc2ccc(S(=O)(=O)O)c3cc(S(=O)(=O)O)cc(S(=O)(=O)O)c23)c1)Nc1cccc(C(=O)Nc2ccc(S(=O)(=O)O)c3cc(S(=O)(=O)O)cc(S(=O)(=O)O)c23)c1 [NF023]
IC50 (Mo7E; Homo sapiens, Mo7e): 102 µM

Structure (SMILES): Cc1ccc(C(=O)Nc2ccc(S(=O)(=O)O)c3cc(S(=O)(=O)O)cc(S(=O)(=O)O)c23)cc1NC(=O)c1cccc(NC(=O)Nc2cccc(C(=O)Nc3cc(C(=O)Nc4ccc(S(=O)(=O)O)c5cc(S(=O)(=O)O)cc(S(=O)(=O)O)c45)ccc3C)c2)c1 [suramin]
Patients achieving partial remission (follicular lymphoma): five of nine | Inhibition of growth, in words (HL-60R; HL-60R): active | IC50 (rhGM-CSF): 2.5 µM | Suppression of proliferation, in words (HL-60 [3]): strongly suppress | m (slope of the median-effect plot) (HL-60 [2]; HL60, 5 days exposure): 1.725 | Inhibition of growth, in words (HL-60 [2]; HL-60): active | IC50 (HL-60 [2]; Homo sapiens, HL-60, 120 h, HL60, 5 days exposure, doses printed in μM, read-out: Dm (antilog of x-intercept of the median-effect plot, the potency (IC50))): 38.7 µM | inhibition at 3.5 µM (HL-60 [2]; Homo sapiens, HL-60, 120 h, suramin 3.5 μM, HL60, 5 days exposure, read-out: Fractional Inhibition): 2% | inhibition at 7 µM (HL-60 [2]; Homo sapiens, HL-60, 120 h, suramin 7.0 μM, HL60, 5 days exposure, read-out: Fractional Inhibition): 4.7% | inhibition at 14 µM (HL-60 [2]; Homo sapiens, HL-60, 120 h, suramin 14.0 μM, HL60, 5 days exposure, read-out: Fractional Inhibition): 9.3% | inhibition at 28 µM (HL-60 [2]; Homo sapiens, HL-60, 120 h, suramin 28.0 μM, HL60, 5 days exposure, read-out: Fractional Inhibition): 41.9% | inhibition at 56 µM (HL-60 [2]; Homo sapiens, HL-60, 120 h, suramin 56.0 μM, HL60, 5 days exposure, read-out: Fractional Inhibition): 67.8% | IC50 (HL-60 [2]; [6]): 38 µM | IC50 (Mo7E; Homo sapiens, Mo7e): 68 µM | Activity, in words (NB4): active

IC50 (rhGM-CSF; [5]): 1.5 µM | IC50 (HL-60 [2]; autonomously proliferating cells, read-out: Half-maximal inhibition of HL-60 growth (GM-CSF independent)): 6 µM
Structure (SMILES): O=C(Nc1cc(C(=O)Nc2ccc(S(=O)(=O)O)cc2)cc(C(=O)Nc2ccc(S(=O)(=O)O)cc2)c1)Nc1cc(C(=O)Nc2ccc(S(=O)(=O)O)cc2)cc(C(=O)Nc2ccc(S(=O)(=O)O)cc2)c1 [NF110]
Enhanced activity (HL-60R; against HL-60R, relative to suramin): 5-10 fold | Enhanced activity (HL-60 [2]; against HL-60, relative to suramin): 5-10 fold | IC50 (Mo7E): 52 µM
